# Measurements: patent publication US8193164B2, “Organic compounds” (Novartis AG, priority 2006, dated 2012)
# Molecular target: adenosine A2A receptor (Homo sapiens, UniProt P29274)
# Test: adenosine A2A receptor agonist assay (method of Murphree et al, Molecular Pharmacology 61, 455-462 (2002))
# Assay type: binding
# Conditions: method described by L. J. Murphree et al, Mol. Pharmacol. 61, 455-462 (2002)
# From the text: Compounds of formulae (I) and (II) and their pharmaceutically acceptable salts are useful as pharmaceuticals. In particular, they activate the adenosine A2A receptor, i.e. they act as A2A receptor agonists.
# Sequence of adenosine A2A receptor (P29274 whole entry): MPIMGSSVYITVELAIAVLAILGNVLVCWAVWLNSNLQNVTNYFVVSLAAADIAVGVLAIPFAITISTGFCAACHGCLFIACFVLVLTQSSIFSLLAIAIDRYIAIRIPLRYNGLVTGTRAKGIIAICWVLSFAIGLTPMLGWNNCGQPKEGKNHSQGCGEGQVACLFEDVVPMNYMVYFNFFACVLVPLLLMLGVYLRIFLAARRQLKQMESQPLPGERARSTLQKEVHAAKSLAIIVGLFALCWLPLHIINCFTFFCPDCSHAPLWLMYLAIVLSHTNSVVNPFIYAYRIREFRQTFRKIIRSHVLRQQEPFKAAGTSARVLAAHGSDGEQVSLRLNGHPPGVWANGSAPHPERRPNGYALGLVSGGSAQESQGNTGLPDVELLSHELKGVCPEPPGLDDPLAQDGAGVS
row,Structure (SMILES),Ki
1,CCC(=O)N[C@H]1C[C@@H](n2cnc3c(NC(CO)Cc4ccccc4)nc(N4CC[C@@H](NC(=O)N[C@H]5CCN(c6nc(NC(CO)Cc7ccccc7)c7ncn([C@@H]8C[C@H](NC(=O)CC)[C@@H](O)[C@H]8O)c7n6)C5)C4)nc32)[C@H](O)[C@@H]1O (stereo in doubt) [Example 7],0.01 µM
2,CCC(=O)N[C@H]1C[C@@H](n2cnc3c(NCC(c4ccccc4)c4ccccc4)nc(N4CC[C@@H](NC(=O)NC5CCC(NC(=O)N[C@H]6CCN(c7nc(NCC(c8ccccc8)c8ccccc8)c8ncn([C@@H]9C[C@H](NC(=O)CC)[C@@H](O)[C@H]9O)c8n7)C6)CC5)C4)nc32)[C@H](O)[C@@H]1O (stereo in doubt) [Example 15],0.07 µM
3,CCC(=O)N[C@H]1C[C@@H](n2cnc3c(NCC(c4ccccc4)c4ccccc4)nc(N4CC[C@@H](NC(=O)N[C@@H]5CCN(c6nc(NCC(c7ccccc7)c7ccccc7)c7ncn([C@@H]8C[C@H](NC(=O)CC)[C@@H](O)[C@H]8O)c7n6)C5)C4)nc32)[C@H](O)[C@@H]1O [Example 1],0.01 µM
4,CCC(=O)N[C@H]1C[C@@H](n2cnc3c(NCC(c4ccccc4)c4ccccc4)nc(N4CC[C@@H](NC(=O)NS(=O)(=O)N[C@@H]5CCN(c6nc(NCC(c7ccccc7)c7ccccc7)c7ncn([C@@H]8C[C@H](NC(=O)CC)[C@@H](O)[C@H]8O)c7n6)C5)C4)nc32)[C@H](O)[C@@H]1O [Example 19],0.06 µM
